According to patent EP0802730B1, “PESTICIDAL COMPOUNDS” (BTG INTERNATIONAL LIMITED, priority 1995, dated 1996):
In brackets after ≈: the same amount, converted by molar mass. Read-outs that look alike come from different tables or passages of the source.

Columns and labels:
[1] = test system: Mites (TU) (Tetranychus urticae), susceptible strain (GSS); test: Mite immersion test, susceptible strain GSS; format: in vivo
Procedure: (§1) 25 adult female mites were immersed in 35 µl of a solution of the test compound in a 1:4 acetone-water mixture for 30 seconds. The treated insects were maintained at 21° ± 2°C and kill was assessed 72 hours after treatment. […] Three replicates of 25 mites each were used at each dose rate and 5 or 6 dose rates were used per compound under test. LC50 values were calculated in ppm of the solution of the test compound per insect. The test was carried out using a susceptible strain of mites (GSS) supplied by Schering, AG, Berlin.

[2] = test system: Whitefly (BT) (Bemisia tabaci), susceptible strain (SUD-S); test: Whitefly residual film vial test, susceptible strain SUD-S; format: in vivo
Procedure: (§2) Acetone solutions (0.100 ml) of the test compounds were placed in 10 ml glass vials and evaporated with rotation to deposit a film of the compound. Thirty adult whiteflies were placed inside the vial, then after 60 minutes, the treated insects were transferred onto untreated cotton leaf discs which were kept moist on a bed of agar gel. The temperature was maintained at 25°C and mortality assessed after 48 hours. Three replicates were used at each of 5 to 7 dose levels per compound.

[3] = test system: resistant whitefly (BT) (Bemisia tabaci), Ned 7; test: Whitefly vial test, resistant strain Ned 7; format: in vivo; conditions: 48 h, read-out: BT (Ned 7) (LC50)
Procedure: as §2, with “per compound. LC50 values (ppm solution) were calculated by using a computer software package ("Polo-PC available from LeOra Software, Berkeley, California) (See M.R. Cahill and B. Hackett in Proceedings Brighton Crop Protection Conference, 1992). The test was carried out using a susceptible strain of whitefly (SUD-S) which was collected in Sudan in 1978 from cotton.” for “per compound.”
The test of Example 16 (BT (SUD-S)) was repeated using a resistant strain of whitefly (Ned 7). The Ned 7 strain was collected in the Netherlands in April, 1993 from hibiscus by J. Fransen and is highly resistant to organophosphate and carbamate insecticides and the insect growth regulator buprofezin.

[4] = test system: Mustard beetles (PC) (Phaedon cochleariae Fab); format: in vivo; conditions: NA = lack of detectable activity; for PC (LD50): 1 µl acetone drop applied ventrally to adults, kill at 48 hours
Procedure: A one microlitre drop of an acetone solution of the test compound was applied ventrally to adult mustard beetles using a micro drop applicator. The treated insects were maintained for 48 hours after which time kill was assessed. Two replicates each of 20 to 25 mustard beetles were used at each dose level and 5 dose levels were treated comparably. LD50 values were calculated as for houseflies.

[5] = test system: Diamond-back moth (PX) (Plutella xylostella); test: Diamond-back moth larvae topical test (failure to pupate); format: in vivo; conditions: fifth instar larvae, 0.5 µl drop; failure to pupate 5 days later
Procedure: Fifth instar larvae were treated with a 0.5 µl drop of test compound in acetone. Three replicates of 10 larvae each were used at each dose rate and 5 dose rates were used per compound under test. After treatment, the larvae were maintained at about 22°C, and kill was assessed as failure to pupate 5 days later. LD50 values were calculated as for houseflies.

[6] = test system: Houseflies (MD) (Musca domestica); format: in vivo; conditions: for MD (LD50): topical 1 µl drop in acetone on female flies, kill assessed 24 and 48 hours
Procedure: Female flies were treated on the thorax with a one microlitre drop of test compound dissolved in acetone. Two replicates of 15 flies were used at each dose rate and 6 dose rates were used per compound under test. After treatment, the flies were maintained at a temperature of 20° ± 1°C and kill was assessed 24 and 48 hours after treatment. LD50 values were calculated in micrograms of test compound per fly (see Sawicki et al., Bulletin of the World Health Organisation, 35, 893 (1966) and Sawicki et al., Entomologia and Exp. Appli 10, 253, (1967).

[7] = test system: Myzus persicae, susceptible strain (US1L); test: Aphid dip test, susceptible strain; format: in vivo
Procedure: Activity against resistant (R) and susceptible (S) strains of aphid (Myzus persicae) was assessed using the following method.
Entrapment rings of fluon were painted halfway up the inside of 4 cm lengths of glass tubing (1.5 cm diameter), and squares of insect-proof gauze were attached to one end of each tube by elastic bands. Fifteen apterous adults were then gently transferred into the tubes using a sable-hair brush, and the tube sealed with a second gauze square.
Tubes containing aphids were dipped into insecticide solutions for 10 seconds, dried on blotting paper, and then inverted and tapped to cause treated aphids to fall to the unimmersed end of each tube. Handling mortality (usually zero or very slight) was scored after 1 hour, when aphids were transferred onto chinese cabbage leaf-discs (35 mm diameter) on an agar bed (25 mm in depth) in disposible plastic containers (30 mm high) and confined by applying a ring of fluon to the exposed lip of the container. Containers were store upright, without lids, in a constant environment facility maintained at 25°C under continuous room lighting. Mortality was assessed at 24, 48 and 72 hours. Two replicates of 15 aphids each were used at each dose rate and 5 or 6 dose rates were used per compound under test.
The test was carried out using a susceptible strain of aphids (US1L) collected in the field in East Anglia, UK and an extremely resistant strain of aphids (794Jz) (R3 esterase, sensitive AChE) collected from glasshouses in the UK.
The values given are % mortality corrected for control data. The control comprised the test solution without active ingredient.

Rhizoctonia solani = test: Fungitoxicity in vitro on potato dextrose agar; format: cell-based; conditions: R. solani; 100 mg 1^-1; 4 days
[8] = test system: Pyricularia oryzae (=Magnaporthe grisea); format: cell-based; conditions: P. oryzae; 100 mg 1^-1; 7 days
Aspergillus niger = test: Fungitoxicity in vitro on potato dextrose agar; format: cell-based; conditions: A. niger; 100 mg 1^-1; 4 days
[9] = test system: resistant mites (TU) (Tetranychus urticae), NYR-Bif-1000; test: Mite immersion test, bifenthrin-resistant strain; format: in vivo; conditions: 72 h, read-out: TU (NYR-Bif-1000) (LC50)
Procedure: as §1
The test of Example 16 (TU(GSS)) was repeated using a strain of mites which is resistant to bifenthrin (NYR-Bif-1000). The NYR-Bif-1000 strain was provided by the Department of Entomology, Cornell University, New York.

[10] = Mammalian toxicity, whole body LD50; conditions: rat, in vivo; rats
Description: In addition to the specific insecticidal and acaricidal tests described above, compounds of the present invention were submitted for further tests relating to toxicity to mammals and so-called friendly species such as Chrysloperla carnea, Aleochora bilineata and Coccinella septempunctata.

[11] = ppm solution of test compound, 30 seconds immersion, kill at 72 hours, read-out: TU(GSS) (LC50)
[12] = ppm solution of test compound, 60 minutes film exposure, mortality after 48 hours, read-out: BT(SUD-S) (LC50)
[13] = strain S, 100 PPM, read-out: % mortality corrected for control data
[14] = strain S, read-out: % mortality corrected for control data

SMILES	LC50 [1, 11] [µg/mL]	LC50 [2, 12] [µg/mL]	LC50 ([3]; resistant strain Ned 7, ppm solution of test compound) [µg/mL]	PC (LD50) [4]	PX (LD50) [5]	MD (LD50) [6]	mortality at 100 ppm [7, 13] [%]	mortality at 250 ppm [7, 14] [%]	% inhibition of growth in colony diameter in agar plates, Activity at 100 mg 1^-1 (Rhizoctonia solani) [%]	% inhibition of growth in colony diameter in agar plates, Activity at 100 mg 1^-1 [8] [%]	% inhibition of growth in colony diameter in agar plates, Activity at 100 mg 1^-1 (Aspergillus niger) [%]	LC50 [3] [µg/mL]	mortality at 40 ppm ([7]; strain S, 40 PPM, read-out: % mortality corrected for control data) [%]	LC50 [9] [µg/mL]	MD LD50 (µg/insect) ([6]; Tables 10, 13, 14, NA = lack of detectable activity)	mortality at 100 ppm ([7]; read-out: MP % kill 100 ppm) [%]	LC50 ([1]; 72 h, Tables 10, 13, 14, susceptible strain, NA = lack of detectable activity, read-out: TU LC50 (ppm/insect)) [µg/mL]	LC50 ([2]; 48 h, Tables 10, 13, 14, susceptible strain, NA = lack of detectable activity, read-out: BT LC50 (ppm/insect)) [µg/mL]	LD50 [10] [mg/kg]	PC LD50 (µg/insect) ([4]; Tables 10, 13, 14)
C=CC(C)(C)C1=C(OC(=O)CCC)C(=O)c2ccccc2C1=O [Example 5]	84 (≈ 269 µM)	13 (≈ 41.6 µM)	21 (≈ 67.2 µM)	6.9 µg/insect	–	–	–	–	–	–	–	–	–	–	–	–	–	–	–	–
C=CC(C)(C)C1=C(OC(=O)CCCCCCCCC)C(=O)c2ccccc2C1=O [Example 8]	630 (≈ 1590 µM)	–	–	c. 8.0 µg/insect	c. 0.1 µg/insect	–	–	–	–	–	–	–	–	–	–	–	–	–	–	–
C=CC(C)(C)C1=C(OCc2ccccc2)C(=O)c2ccccc2C1=O [Example 13]	> 1000	> 1000	–	> 20 µg/insect	c. 8.0 µg/insect	> 20 µg/insect	–	–	–	–	–	–	–	–	–	–	–	–	–	–
CC(C)(C)C1=C(O)C(=O)c2ccccc2C1=O [Example 3, 2-(t-butyl)-3-hydroxy-naphthalene-1,4-dione]	81 (≈ 352 µM)	8 (≈ 34.7 µM)	–	c. 6.0 µg/insect	c. 8.0 µg/insect	c. 2.5 µg/insect	27	87	92	100	61	–	–	–	–	–	–	–	–	–
CCCCCCCCCCCCC1=C(OC(C)=O)C(=O)c2ccccc2C1=O [Compound A, 2-n-dodecyl-3-ethanoyloxynaphthalene-1,4-dione, reference compound]	64 (≈ 166 µM)	82 (≈ 213 µM)	–	0.36 µg/insect	–	>> 20 µg/insect	–	–	–	–	–	470 (≈ 1220 µM)	–	–	–	–	–	–	–	–
CCC(C)(C)C1=C(OC(C)=O)C(=O)c2ccccc2C1=O [Example 2, 2-(1,1-dimethylpropyl)-3-ethanoyloxy-naphthalene-1,4-dione]	64 (≈ 224 µM)	4.8 (≈ 16.8 µM)	–	c. 6.0 µg/insect	c. 10 µg/insect	< 10 µg/insect	–	27	81	89	38	–	20	83 (≈ 290 µM)	–	–	–	–	–	–
CC1(C2=C(O)C(=O)c3ccccc3C2=O)CCCCC1 [Example 25, 2-hydroxy-3-(1'-methylcyclohexyl)-naphthalene-1,4-dione]	–	–	–	–	–	–	23	67	93	94	45	–	–	–	1.9	22	28 (≈ 104 µM)	0.1 (≈ 0.37 µM)	2790	5
CCC(C)(C)C1=C(O)C(=O)c2ccccc2C1=O [Example 1, 2-(1,1-dimethylpropyl)-3-hydroxynaphthalene-1,4-dione]	39 (≈ 160 µM)	19 (≈ 77.8 µM)	–	c. 10 µg/insect	–	< 10 µg/insect	11	26	95	100	63	–	–	84 (≈ 344 µM)	–	–	–	–	–	–
